According to article PMC8765781, “A platform of assays for the discovery of anti-Zika small-molecules with activity in a 3D-bioprinted outer-blood-retina model” (PLoS ONE, 2022):
Like-named read-outs stand apart in the source and are kept apart here.

What was measured:
[1] = system: wild-type ZIKV (Ugandan MR766 strain) in Vero cells; assay: ZIKV cytopathic effect (CPE) inhibition qHTS assay, CellTiter-Glo readout; format: cell-based, Zika virus; conditions: for IC50: read-out: ZIKV-infection (CPE, ZIKV Antiviral Assays), IC50
[2] = system: ZIKV-RLuc (Cambodian strain FSS13025); assay: microbe, parasite or virus in culture; format: cell-based, Zika virus; conditions: for IC50: read-out: Rluc-ZIKV (ZIKV Antiviral Assays), IC50
[3] = system: Vero cells
[4] = system: caspase-3 activity induced by ZIKV in Vero cells; assay: cells; format: cell-based; conditions: read-out: Caspase 3 (ZIKV Antiviral Assays), IC50
[5] = system: ZIKV-mCherry (Cambodian strain FSS13025); assay: microbe, parasite or virus in culture; format: cell-based, Zika virus
[6] = in vitro; conditions: African green monkey
[7] = Zika virus, Vero, read-out: Log AC50 (M) (converted)
[8] = Zika virus, Vero, from Hill fit of the response curve, 50% of maximum activity response, 194 cherry-picked compounds, protocol name not given, read-out: AC50
[9] = Zika virus, Vero, potency in log units (Molar) from Hill fit of the response curve, 194 cherry-picked compounds, protocol name not given, read-out: Log AC50 (converted)
[10] = curve class v2 (Inglese et al. 2006)
[11] = difference between neutral response and maximum compound response
[12] = Zika virus, Vero cells, wild-type ZIKV MOI 1, 48 hr, unit inferred
[13] = Zika virus, ZIKV-infected Vero cells, 48 hr, unit inferred

Q: Which results are given for `CC1=C(CO)C(=O)O[C@@H]([C@@H](C)[C@H]2CC[C@H]3[C@@H]4C[C@H]5O[C@]56[C@@H](O)C=CC(=O)[C@]6(C)[C@H]4CC[C@]23C)C1` [NCGC00180796-02]?
A: Curve class [1]: -3; Efficacy [1]: -63.347; AC50 ([1]; Zika virus, Vero): 3.55e-05 M; AC50 ([1]; Zika virus, Vero, read-out: Log AC50 (converted)): 3.55e-05 M; Emax ([1]; Zika virus, Vero, read-out: Max response): -65.4%; CC-v2 (curve class classification v2 of the dose response curve) [2]: -2.1; Efficacy (difference between neutral response and maximum compound response) [2]: -108.248; Max Resp (difference between neutral response and compound response for highest compound concentration) [2]: -100.116; AC50 ([2]; Zika virus, Vero): 1.02e-05 M; AC50 [2, 7]: 1.02e-05 M; AC50 [3]: 10.2 µM; Log AC50 (M) [3]: -4.9908 M

Q: What does the source list for `O=C1NC2CCCCN2C12CCN(CCCN1c3ccccc3CCc3ccc(Cl)cc31)CC2` (stereo not shown) [NCGC00183853-01]?
A: AC50 [1, 8]: 6.51e-05 M; AC50 [1, 9]: 6.51e-05 M; CC-v2 (curve class classification of the dose response curve) [1, 10]: -3; Efficacy [1, 11]: -47.567; CC-v2 (curve class classification v2 of the dose response curve) [2]: -2.1; Efficacy (difference between neutral response and maximum compound response) [2]: -99.983; Max Resp (difference between neutral response and compound response for highest compound concentration) [2]: -99.289; AC50 ([2]; Zika virus, Vero): 2.61e-05 M; AC50 [2, 7]: 2.61e-05 M; AC50 [3]: 26.1 µM; Log AC50 (M) [3]: -4.5827 M

Q: Which results are given for `C[C@H]1CC[C@@]2(OC1)O[C@H]1CC3[C@@H]4CC[C@@H]5C[C@@H](O[C@@H]6O[C@H](CO)[C@@H](O[C@@H]7O[C@@H](C)[C@H](O)[C@@H](O)[C@H]7O)[C@H](O)[C@H]6O[C@@H]6O[C@H](CO)[C@@H](O)[C@H](O)[C@H]6O)CC[C@]5(C)C4CC[C@]3(C)[C@H]1[C@@H]2C` (stereo partly shown) [NCGC00347372-02, Asparanin B]?
A: AC50 [1, 8]: 1.1e-05 M; AC50 [1, 9]: 1.1e-05 M; IC50 [1, 12]: 11 µM; CC-v2 (curve class classification of the dose response curve) [1, 10]: -2.2; Efficacy [1, 11]: -63.699; IC50 [4, 13]: 6.98 µM; IC50 ([2]; Zika virus, Vero, 48 h): 6.19 µM; CC-v2 (curve class of the dose response curve) [5]: -1.2; Efficacy (difference between neutral response and maximum compound response) [5]: -51.182; Max Resp (difference between neutral response and response at highest compound concentration) [5]: -100.305; AC50 ([5]; Zika virus, Vero): 1.27e-06 M; AC50 [5, 7]: 1.27e-06 M; CC50 at 48 h [6]: > 50 µM

Q: Which AC50 [1, 8] does the source give for `CC1(C)CC2C3=CCC4[C@@]5(C)CC[C@H](OC6OCC(O)C(OC7OC(CO)C(O)C(O)C7O)C6O)C(C)(C)C5CC[C@@]4(C)[C@]3(C)C[C@H](O)[C@@]2(CO)[C@H](OC(=O)c2ccccc2)C1` (stereo partly shown) [NCGC00347604-02] here?
A: 7.78e-06 M

Q: And the AC50 [1, 9]?
A: 7.78e-06 M

Q: What about the IC50 [1, 12] of the same compound?
A: 7.78 µM

Q: And the “CC-v2 (curve class classification of the dose response curve)” value [1, 10]?
A: -3

Q: What about the Efficacy [1, 11] of the same compound?
A: -34.889

Q: And the IC50 [4, 13]?
A: > 48 µM

Q: And the IC50 ([2]; Zika virus, Vero, 48 h)?
A: 5.52 µM

Q: What about the “CC-v2 (curve class of the dose response curve)” value [5] of the same compound?
A: -1.4

Q: What about the “Efficacy (difference between neutral response and maximum compound response)” value [5] of the same compound?
A: -68.489

Q: What about the “Max Resp (difference between neutral response and response at highest compound concentration)” value [5] of the same compound?
A: -100.29

Q: And the CC50 [6]?
A: > 50 µM

Q: With `CC1(C)CC[C@]2(C(=O)O)CC[C@]3(C)C(=CCC4[C@@]5(C)CCC(O[C@@H]6OC[C@H](O)[C@H](O)[C@H]6O[C@@H]6O[C@H](CO)[C@@H](O)[C@H](O)[C@H]6O)[C@@](C)(CO)C5CC[C@]43C)[C@@H]2C1` (stereo partly shown) [NCGC00347737-02] as the compound, how does the Efficacy [1] read?
A: -61.863

Q: And the AC50 ([1]; Zika virus, Vero)?
A: 2.43e-07 M

Q: And the IC50 ([1]; Zika virus, Vero, 48 h)?
A: 0.24 µM

Q: And the AC50 [1, 7]?
A: 2.43e-07 M

Q: And the IC50 ([4]; Zika virus, Vero, 48 h)?
A: 0.02 µM

Q: What about the IC50 ([2]; Zika virus, Vero, 48 h) of the same compound?
A: 12.3 µM

Q: And the CC50 at 48 h ([6]; Vero cells)?
A: > 50 µM

Q: For `CC(=O)O[C@@H]1[C@@H](O)[C@H]2O[C@@H]3C=C(C)[C@@H](O)C[C@]3(CO)[C@]1(C)[C@]21CO1` [NCGC00380400-01, NT-2 toxin], which “CC-v2 (curve class classification of the dose response curve)” value [1] is on record?
A: -1.2

Q: And the Efficacy [1]?
A: -41.676

Q: And the “Log AC50 (M)” value [1]?
A: -5.594 M

Q: What about the “Max Resp” value [1] of the same compound?
A: 6.747

Q: And the AC50 ([1]; read-out: AC50)?
A: 2.55e-06 M

Q: What about the IC50 [1] of the same compound?
A: 2.55 µM

Q: What about the IC50 [4] of the same compound?
A: 2.29 µM

Q: What about the IC50 [2] of the same compound?
A: 0.64 µM

Q: And the “CC-v2 (curve class of the dose response curve)” value [5]?
A: -1.2

Q: And the “Efficacy (difference between neutral response and maximum compound response)” value [5]?
A: -59.911

Q: And the “Log AC50 (M)” value [5]?
A: -7.0328 M

Q: And the “Max Resp (difference between neutral response and response at highest compound concentration)” value [5]?
A: -100.305

Q: And the AC50 ([5]; read-out: AC50)?
A: 9.27e-08 M

Q: With `C/C=C(\C)C(=O)O[C@H]1[C@H](OC(C)=O)[C@]2(CO)[C@H](O)[C@H](O)[C@]3(C)C(=CCC4[C@@]5(C)CC[C@H](O[C@@H]6O[C@H](C(=O)O)[C@@H](O)[C@H](O[C@@H]7OC[C@H](O)[C@H](O[C@@H]8OC[C@H](O)[C@H](O)[C@H]8O)[C@H]7O)[C@H]6O[C@@H]6O[C@H](CO)[C@@H](O)[C@H](O)[C@H]6O)C(C)(C)C5CC[C@]43C)[C@@H]2CC1(C)C` (stereo partly shown) [NCGC00381072-01] as the compound, how does the Efficacy [1] read?
A: -30.676

Q: And the AC50 ([1]; Zika virus, Vero)?
A: 8.71e-06 M

Q: What about the IC50 ([1]; Zika virus, Vero, 48 h) of the same compound?
A: 8.71 µM

Q: What about the AC50 [1, 7] of the same compound?
A: 8.71e-06 M

Q: And the IC50 ([4]; Zika virus, Vero, 48 h)?
A: 2.52 µM

Q: What about the IC50 ([2]; Zika virus, Vero, 48 h) of the same compound?
A: 4.45 µM

Q: And the “CC-v2 (curve class of the dose response curve)” value [5]?
A: -2.2

Q: What about the “Efficacy (difference between neutral response and maximum compound response)” value [5] of the same compound?
A: -56.385

Q: And the “Max Resp (difference between neutral response and response at highest compound concentration)” value [5]?
A: -100.02

Q: What about the AC50 ([5]; Zika virus, Vero) of the same compound?
A: 5.66e-06 M

Q: And the AC50 [5, 7]?
A: 5.66e-06 M

Q: What about the CC50 [6] of the same compound?
A: > 50 µM
